Reference: patent EP4810508A1, “ARABINOSE DERIVATIVE COMPOUND, AND COMPOSITION COMPRISING SAME FOR PREVENTING OR TREATING DEGENERATIVE BRAIN DISEASES” (Digmbio. Inc., priority 2023, dated 2025)
Like-named read-outs stand apart in the source and are kept apart here.

System: HRE/Luc/HEK293 cells
Assay: HRE (Hypoxia Response Element) luciferase assay
Assay type: cell-based, human
Details: for fold induction at 10 µM / fold induction at 100 µM: Homo sapiens; for HRE expression: low concentration of 1 µM
How it was run: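 HRE-luciferase HEK293 cells in MEM/10% FBS pretreated with compound 6 h, then held under hypoxia (0.1% O2) 18 h; luminescence read after lysis. Scored as fold increase over vehicle, with twofold threshold at 100, 10 or 1 µM.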

[1] = HEK293, 18 h, Table 2 (Examples 75-109, 114), read-out: HRE-inceasing 10uM
[2] = HEK293, 18 h, Table 2 (Examples 75-109, 114), read-out: HRE-inceasing 100uM
[3] = HEK293, 18 h, Table 2 (Examples 37-74, 52), read-out: HKt-increasing 10uM
[4] = HEK293, 18 h, Table 2 (Examples 37-74, 52), read-out: HKt-increasing 100uM

Row | SMILES | fold induction at 10 µM [1] | fold induction at 100 µM [2] | fold induction at 10 µM [3] | fold induction at 100 µM [4] | other results
1 | COc1ccc(-c2ccc(O[C@H]3OC[C@H](O)[C@H](O)[C@H]3O)cc2)cn1 [Example 85, (2R,3R,4S,5S)-2-(4-(6-methoxypyridin-3-yl)phenoxy)tetrahydro-2H-pyran-3,4,5-triol] | 1.3 | 2.6 | – | – | –
2 | CC(C)c1ccc(Oc2cccc(O[C@H]3OC[C@H](O)[C@H](O)[C@H]3O)c2)cc1 [Example 54, (2R,3R,4S,5S)-2-(3-(4-isopropylphenoxy)phenoxy)tetrahydro-2H-pyran-3,4,5-triol] | – | – | 1 | 1.5 | –
3 | COc1ccc(Cc2ccc(O[C@H]3OC[C@H](O)[C@H](O)[C@H]3N)cc2)cc1 [Example 78] | 12 | 2.4 | – | – | –
4 | COc1ccc(Cc2ccc(S[C@H]3OC[C@H](O)[C@H](O)[C@H]3O)cc2)cc1 [Example 29, (2R,3R,4S,5S)-2-((4-(4-methoxybenzyl)phenyl)thio) tetrahydro-2H-pyran-3,4,5-thiol] | – | – | – | – | fold induction at 10 µM (HEK293, fold increase of HRE expression, hypoxic conditions (O2 0.1%) 18 hours, Table 2, read-out: HRE-increasing 10uM): 2.7; fold induction at 100 µM (HEK293, fold increase of HRE expression, hypoxic conditions (O2 0.1%) 18 hours, Table 2, read-out: HRE-increasing 100uM): 2.6
5 | Cc1ccc2oc(-c3ccc(O[C@H]4OC[C@H](O)[C@H](O)[C@H]4O)cc3)nc2c1 [Example 109, (2R,3R,4S,5S)-2-(4-(5-methylbenzo[d]oxazol-2-yl)phenoxy)tetrahydro-2H-pyran-3,4,5-triol] | 3.2 | 4.4 | – | – | HRE expression: more than threefold
6 | COc1ccc2cc(-c3ccc(O[C@H]4OC[C@H](O)[C@H](O)[C@H]4O)cc3)oc2c1 [Example 81, (2R,3R,4S,5S)-2-(4-(6-methoxybenzofuran-2-yl)phenoxy)tetrahydro-2H-pyran-3,4,5-triol] | 2.7 | 3.6 | – | – | –
7 | CC(C)c1ccc(Oc2ccc(O[C@H]3OC[C@@H](O)[C@H](O)[C@H]3O)c(Cl)c2)cc1 [Example 67, (2R,3R,4S,5R)-2-(2-chloro-4-(4-isopropylphenoxy)henoxy)tetrahydro-2H-pyran-3,4,5-triol] | – | – | 3.5 | 2.6 | HRE expression: more than threefold
8 | CC(C)c1ccc(Oc2ccc(O[C@H]3OC[C@H](F)[C@H](O)[C@H]3O)cc2)cc1 [Example 58, (2R,3R,4R,5S)-5-fluoro-2-(4-(4-isopropylphenoxy)phenoxy)tetrahydro-2H-pyran-3,4-diol] | – | – | 2.6 | 2.2 | –
9 | Cc1ccc2oc(-c3ccc(O[C@H]4OC[C@H](O)[C@H](O)[C@H]4O)c(Cl)c3)nc2c1 [Example 99, (2R,3R,4S,5S)-2-(2-chloro-4-(5-methylbenzo [d]oxazol-2-yl)phenoxy)tetrahydro-2H-pyran-3,4,5-triol] | 2.8 | 3.6 | – | – | –
10 | CC(C)c1cccc2nc(-c3cccc(O[C@H]4OC[C@H](O)[C@H](O)[C@H]4O)c3)oc12 [Example 97, (2R,3R,4S,5S)-2-(3-(7-isopropylbenzo[d]oxazol-2-yl)phenoxy)tetrahydro-2H-pyran-3,4,5-triol] | 1.1 | 1.2 | – | – | –
11 | CC[C@H]1CC[C@H](Cc2ccc(O[C@H]3OC[C@H](O)[C@H](O)[C@H]3O)cc2)CC1 [Example 73, (2R,3R,4S,5S)-2-(4-(((1R,4R)-4-ethylcyclohexyl)methyl)phenoxy)tetrahydro-2H-pyran-3,4,5-triol] | – | – | 2.1 | 3 | –
